In patent US20220241416A1, “METHODS FOR THE IDENTIFICATION OF SARM1 NADASE ACTIVITY INHIBITORS AND USES THEREOF” (Bar Ilan University, priority 2021, published 2022):
Several values for one entry are separate records, joined by “and”; a condition that tells them apart may be missing. Equal values may be shown once.

Target: T1, hSARM1 (Homo sapiens, UniProt Q6SZW1, E642Q)
T1 construct: short of the N′ terminal mitochondria) localization signal (26ERL . .; 6xHis (N); TEV cleavage site (N); made in house; host or cells: HEK293F suspension cells
T1 sequence (Q6SZW1 with tags, fused parts or gaps E642Q): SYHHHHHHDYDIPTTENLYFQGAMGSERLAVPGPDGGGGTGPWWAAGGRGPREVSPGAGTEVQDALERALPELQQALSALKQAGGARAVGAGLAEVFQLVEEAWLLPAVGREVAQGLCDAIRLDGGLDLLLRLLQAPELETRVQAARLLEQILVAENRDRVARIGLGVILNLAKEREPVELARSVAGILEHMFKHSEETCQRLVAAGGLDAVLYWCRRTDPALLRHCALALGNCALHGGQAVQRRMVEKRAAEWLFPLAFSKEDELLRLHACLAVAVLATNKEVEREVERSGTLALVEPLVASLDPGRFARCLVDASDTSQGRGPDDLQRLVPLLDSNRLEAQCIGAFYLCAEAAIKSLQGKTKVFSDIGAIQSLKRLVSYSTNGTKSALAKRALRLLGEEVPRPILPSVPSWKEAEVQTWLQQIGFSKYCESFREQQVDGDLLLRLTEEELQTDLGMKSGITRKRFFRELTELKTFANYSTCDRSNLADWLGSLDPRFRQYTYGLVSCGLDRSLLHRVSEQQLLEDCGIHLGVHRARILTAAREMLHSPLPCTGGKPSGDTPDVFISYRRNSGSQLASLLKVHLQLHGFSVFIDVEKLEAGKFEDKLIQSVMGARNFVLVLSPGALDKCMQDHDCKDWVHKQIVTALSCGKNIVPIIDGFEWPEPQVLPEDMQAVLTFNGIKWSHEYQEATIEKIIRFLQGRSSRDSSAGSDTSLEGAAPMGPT
Assay: Cryo-EM 2D classification of hSARM1 conformation
Conditions: for effect on hSARM1 conformation: 2D classification / GraFix
Experimental: FIG. 7B: The structural effects of NAD+ and ATP were observed by cryo-EM based on appearance in 2D classification. Presented are the 10 most populated classes (those with the largest number of particles—numbers in green, 1st class is on the left) out of 50-100 from each data collection after the first round of particle picking and classification. By this analysis, the percentage of particles that present full, two-ring structure is 13% (no NAD+); 74% (5 mM NAD+); and 4% (10 mM ATP).
Cryo-EM grids were prepared by applying 3 μl protein samples to glow-discharged (PELCO easiGlow™ Ted Pella Inc., at 15 mA for 1 minute) holey carbon grids (Quantifoil R 1.2/1.3, Micro Tools GmbH, Germany). The grids were blotted for 4 seconds and vitrified by rapidly plunging into liquid ethane at −182° C. using Leica EM GP plunger (Leica Microsystems, Vienna, Austria). The frozen grids were stored in liquid nitrogen until the day of cryo-EM data collection.
The data presented herein was collected with three separate cryo-electron microscopes: 1) F30 Polara in Ben-Gurion University, Israel was used for all sample preparation optimization. It was also used to collect data sets without and with potential inhibitors (shown in FIG. 1C and the ATP and NMN supplemented classes in FIG. 7B). Samples were imaged under low-dose conditions on a FEI Tecnai F30 Polara microscope (FEI, Eindhoven) operating at 300 kV. Datasets were collected using SerialEM (D. N. Mastronarde, et al. Journal of structural biology 152, 36-51 (2005)) on a K2 Summit direct electron detector fitted behind an energy filter (Gatan Quantum GIF) with a calibrated pixel size of 1.1 Å. The energy filter was set to remove electrons >±10 eV from the zero-loss peak energy. The defocus range was set from −1.0 μm to −2.5 μm. The K2 summit camera was operated in counting mode at a dose rate of 8 electrons/pixel/second on the camera. Each movie was dose fractionated into 50 image frames, with total electron dose of 80ē/Å2. Dose-fractionated image stacks were aligned using MotionCorr2 (X. Li et al., Nature methods 10, 584-590 (2013)), and their defocus values estimated by Gctf (K. Zhang, et al. J Struct Biol 193, 1-12 (2016)). The sum of the aligned frames was used for further processing and the rest of the processing was done in Cryosparc V2 (A. Punjani, J. et al. Nature Methods 14, 290-+(2017)). Particles were auto-picked and subjected to local motion correction to correct for beam-induced drift and then 2D classification with 50 classes. The best (based on shape, number of particles and resolution) classes were manually selected containing 5459 (for hSARM1E642Q) and 43868 (for SAM1-2) particles. 1 initial 3D reference was prepared from all particles and 3D refinement imposing C8 symmetry resulted the final map. […]

Compound | percentage of particles that present full, two-ring structure (10 mM ATP, 13% without supplement) [%] | effect on hSARM1 conformation | percentage of particles that present full, two-ring structure (5 mM NAD+, 13% or <20% without NAD+)
Nc1ncnc2c1ncn2[C@@H]1O[C@H](COP(=O)(O)OP(=O)(O)OP(=O)(O)O)[C@@H](O)[C@H]1O [ATP] | 4 | did not affect hSARM1 conformation | –
NC(=O)c1ccc[n+]([C@@H]2O[C@H](COP(=O)([O-])OP(=O)(O)OC[C@H]3O[C@@H](n4cnc5c(N)ncnc54)[C@H](O)[C@@H]3O)[C@@H](O)[C@H]2O)c1 [NAD+, Nicotinamide adenine dinucleotide] | – | – | > 80% and 74%
OCC(O)CO [glycerol] | – | imposes hSARM1 compact conformation | –
